Experimental data published in patent US11332756B2, “RNA virus vectors carrying DAI and RIPK3” (Institute For Cancer Research, priority 2016, dated 2022).
*1 amine or outer side, *2 acyl side, *3 side chain or, on linkers, in order; H or OH if unused. Where a SMILES comes first, the peptide text is derived from it. Bridges are numbered along the chain shown (N, C = ends). Roman numbers before positions name the chains, in order. [ ]: non-standard residue; d: D form. The star is where a group is joined. Actinocin(9to1) = Cc1c2oc3c(C)ccc(C(=O)[*:1])c3nc-2c(C(=O)[*:2])c(N)c1=O; NMeV = CN[C@H](C(=O)O)C(C)C; Cbz = O=C(OCc1ccccc1)*; Sar = CNCC(=O)O; CH2F = FC*

Tests used:
[1] = test system: wild-type MEFs infected with PR8; format: cell-based, murine
[2] = molecular target: T1, RIPK3-RIPK1 necrosome (Mus musculus, UniProt Q9QZL0); assay: IAV-induced RIPK3-RIPK1 necrosome formation (RIPK3 immunoprecipitation) in MEFs; format: cell-based, murine; conditions: for IAV (PR8)-induced RIPK3-RIPK1 necrosome / complex formation: PR8-infected MEFs, cells pre-treated with agent, RIPK3 immunoprecipitation
T1 construct: RIPK3 was immunoprecipitated from lysates of PR8-infected MEFs; endogenous in cells; host or cells: wild-type mouse embryo fibroblasts (MEFs)
Description: (§1) IAV replication results in assembly of a RIPK3 complex containing RIPK1, FADD and MLKL. A molecular feature of RIPK3 dependent cell death is the stimulus-driven formation of a molecular complex called the necrosome, comprising as its core phosphorylated forms of RIPK3 and RIPK1, together with FADD and MLKL. From the necrosome, RIPK3 can activate both necroptosis and apoptosis, depending on target availability or RIPK3 activity. To test if IAV induced formation of a necrosome, RIPK3 was immunoprecipitated from lysates of PR8-infected MEFs, and immunoprecipitates were examined for the presence of slower-mobility forms of phosphorylated RIPK1. PR8 activated necrosome formation to a significant extent, as did the combination of PR8+zVAD (see, FIG. 4A, left and middle panels). Like TNF-α (see, FIG. 4A, right panels), IAV infection also drove the recruitment of FADD and MLKL into the RIPK3-RIPK1 necrosome.

[3] = test system: ripk3−/− MEFs infected with PR8; format: cell-based, murine
[4] = test system: mlkl−/− MEFs infected with PR8; format: cell-based, murine
[5] = test system: apoptosis activated by TRAIL and cycloheximide in MEFs; assay: Apoptosis induced by TRAIL and cycloheximide; format: cell-based, murine; conditions: TRAIL 2 μg/ml + CHX 250 ng/ml; anti-TRAIL-R2 10 μg/ml; zVAD same dose as in PR8 test
[6] = test system: MLKL phosphorylation and cleavage of caspase 8; assay: Immunoblot of phosphorylated MLKL and cleaved caspase 8 in PR8-infected MEFs; format: cell-based, murine; conditions: wild-type MEFs, zVAD 50 μM
[7] = test system: IAV (PR8); format: cell-based, Influenza A virus
[8] = test system: TCZ-treated wild-type MEFs; format: cell-based, murine
[9] = test system: ripk1−/− MEFs infected with PR8; format: cell-based, murine
[10] = molecular target: T1, RIPK3-RIPK1 necrosome; assay: TNF-α-induced necrosome assembly in MEFs; format: cell-based, murine; conditions: same doses as in PR8 experiment; not shown
Description: as §1

T1 sequence (Q9QZL0 whole entry): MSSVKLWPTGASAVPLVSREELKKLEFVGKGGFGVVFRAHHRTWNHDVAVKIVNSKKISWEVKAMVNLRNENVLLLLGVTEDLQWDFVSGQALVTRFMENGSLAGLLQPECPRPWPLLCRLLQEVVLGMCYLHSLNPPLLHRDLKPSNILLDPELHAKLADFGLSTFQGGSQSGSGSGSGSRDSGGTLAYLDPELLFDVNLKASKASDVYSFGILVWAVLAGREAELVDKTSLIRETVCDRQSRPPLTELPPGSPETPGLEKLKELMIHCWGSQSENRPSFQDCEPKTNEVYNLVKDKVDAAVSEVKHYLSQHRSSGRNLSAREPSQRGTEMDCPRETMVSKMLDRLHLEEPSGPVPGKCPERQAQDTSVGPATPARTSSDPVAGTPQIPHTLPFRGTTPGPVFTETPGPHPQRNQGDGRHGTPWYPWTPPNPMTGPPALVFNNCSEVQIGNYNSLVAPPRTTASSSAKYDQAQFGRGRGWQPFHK

Row | SMILES | protection of viability after PR8 infection, inhibitor alone [1] | IAV (PR8)-induced RIPK3-RIPK1 necrosome / complex formation [2] | viral replication [7] | also measured
1 | COC(=O)C[C@H](NC(=O)[C@H](C)NC(=O)[C@@H](NC(=O)OCc1ccccc1)C(C)C)C(=O)CF [zVAD, zVAD.fmk] (Cbz-Val-Ala-Asp(OMe)-CH2F) | did not protect | – | – | necrosome formation induced by the agent alone ([2]; zVAD alone, 25 μM, no virus): did not induce detectable necrosome formation; viability of PR8-infected ripk3−/− MEFs [3]: remained mostly alive; rescue from PR8-induced cell death in mlkl−/− MEFs [4]: fully rescued; protection against apoptosis induced by TRAIL and cycloheximide [5]: prevented apoptosis; IAV-induced cleavage of caspase 8 [6]: inhibited
2 | Cc1onc(-c2ccccc2)c1C(=O)N1CCN(c2ccc([N+](=O)[O-])cc2Cl)CC1 [nucleozin] | – | potently blocked | abrogated viral replication | –
3 | Cc1cc(-c2cnc(N)c3c(-c4ccc5scnc5c4)csc23)n(C)n1 [GSK'843] | failed to prevent PR8-induced cell death | blocked PR8-induced necrosome assembly | – | protection against TNF-α-induced necroptosis / cell death [8]: fully protective; protection from PR8-induced cell death in ripk1−/− MEFs [9]: almost-fully protected
4 | CC[C@H](C)[C@H](NC(=O)OCc1ccccc1)C(=O)N[C@@H](CCC(=O)OC)C(=O)N[C@H](C(=O)N[C@@H](CC(=O)OC)C(=O)CF)[C@@H](C)O [zIETD, zIETD.fmk] (Cbz-IE(OMe)TD(OMe)-CH2F) | – | – | – | protection against PR8 compared with zVAD [4]: less protection against PR8 than zVAD; rescue from PR8-induced cell death in mlkl−/− MEFs [4]: significant protection
5 | CC(C)(C)C(=O)N1N=CC[C@H]1c1ccccc1 [GSK'963] | did not have any discernible protective effect | inability of these agents to prevent IAV-driven necrosome formation | – | –
6 | CC(C)S(=O)(=O)c1ccc2nccc(Nc3ccc4scnc4c3)c2c1 [GSK'872] | failed to prevent PR8-induced cell death | blocked PR8-induced necrosome assembly | – | protection against TNF-α-induced necroptosis / cell death [8]: fully protective; protection from PR8-induced cell death in ripk1−/− MEFs [9]: almost-fully protected
7 | C[C@@H]1C[C@@H]([C@H](O)CC2CC(=O)NC(=O)C2)C(=O)[C@@H](C)C1 [CHX, cycloheximide] | – | effectively prevented | effectively prevented | effect on TNF-α-induced necrosome assembly [10]: Neither ActD nor CHX at these doses affected
8 | CN1C(=O)C(Cc2c[nH]c3ccccc23)NC1=S (stereo not drawn) [Nec-1, Necrostatin 1] | did not have any discernible protective effect | inability of these agents to prevent IAV-driven necrosome formation | – | –
9 | Cc1c2oc3c(C)ccc(C(=O)N[C@@H]4C(=O)N[C@H](C(C)C)C(=O)N5CCC[C@H]5C(=O)N(C)CC(=O)N(C)[C@@H](C(C)C)C(=O)O[C@@H]4C)c3nc-2c(C(=O)N[C@@H]2C(=O)N[C@H](C(C)C)C(=O)N3CCC[C@H]3C(=O)N(C)CC(=O)N(C)[C@@H](C(C)C)C(=O)O[C@@H]2C)c(N)c1=O [ActD, Actinomycin D] (I: T[dV]P[Sar][NMeV] / II: T[dV]P[Sar][NMeV]; ester I:1-I:C, II:1-II:C; linker I:N-II:N via Actinocin(9to1)) | – | effectively prevented | effectively prevented | effect on TNF-α-induced necrosome assembly [10]: Neither ActD nor CHX at these doses affected
10 | CN1C(=O)[C@@H](NC(=O)c2cc(Cc3ccccc3)on2)COc2ccccc21 [GSK'481] | did not have any discernible protective effect | inability of these agents to prevent IAV-driven necrosome formation | – | –
